Key:
[1] = test system: colorectal cancer cells HCT116; assay: Amount of secreted EVs by the NTA method; assay type: cell-based, human; settings: HCT116, 2.5 μmol/L, 48 hours, serine-deficient medium, compared with NC (DMSO)
Method: (§1) The cultured cancer cells were washed with phosphate buffered saline (PBS), and the medium was replaced with advanced RPMI or advanced DMEM containing the above-described antibiotic-antimycotic agent and 2 mmol/L L-glutamine (Gibco). The adjusted culture solution after the replacement was centrifuged at 2,000×g for 10 minutes to remove the cells, and the supernatant obtained was filtered through a 0.22 μm filter (Millipore). The resulting filtrate was centrifuged at 110,000×g for 70 minutes, whereby pellets containing concentrated EVs were obtained. The pellets were washed with 11 mL of PBS, further ultracentrifuged at 110,000×g for 70 minutes, and collected again.
(§2) The secreted EVs were collected and then suspended in PBS. […] An EV concentration was calculated as particles/cells in the culture solution, whereby a net EV secretion rate was obtained. […]
(§3) In a 6-well plate, 2 mL of the cancer cell suspension was seeded at 1.0×10^5 cells/well and incubated for 24 hours. […] 48 hours after the replacement, total RNA was extracted, and the expression of the gene of interest was measured by qPCR.
(§4) Colorectal cancer cells HCT116 and lung cancer cells A549 were each transfected with miR-891b. […] Then, according to the ExoScreen method described above, the amounts of the secreted EVs were measured by measuring the signal intensities. […]

lung cancer cells A549 = assay: Amount of secreted EVs by the NTA method; assay type: cell-based, human; settings: A549, 2.5 μmol/L, 48 hours, serine-deficient medium, compared with NC (DMSO)
Method: as §1, §2, §3, §4

Cc1cc(C)nc(NC(=S)N2CCN(Cc3ccc(C(F)(F)F)cc3)CC2)c1 [NCT-503]
amount of EVs in the media (NTA, relative to negative control = 1) [1]: smaller | amount of EVs in the media (NTA, relative to negative control = 1) (lung cancer cells A549): smaller

— patent publication US20260218197A1, “EXTRACELLULAR VESICLE SECRETION REDUCING AGENT FOR REDUCING EXTRACELLULAR VESICLE SECRETION, AND USE OF THE SAME” (THEORIA SCIENCE INC., priority 2020, published 2026)
